Assay results as given in US8618088B2, “Methods of inhibiting choroidal neovascularization” (University of Pennsylvania, priority 2002, dated 2013).

Tests used:
[1] = system: choroidal neovascularization (CNV); experiment: Matrigel subretinal injection model of choroidal neovascularization (CNV), Vessel Paint staining and fluorescence microscopy; assay type: in vivo, Sprague-Dawley rats
Protocol: In search of effective treatments for CNV, a simple animal model was created by injecting 2-3µl Matrigel™ to the subretinal space of adult Sprague-Dawley rats using a 33-gauge needle connected to a 10µl Hamilton microsyringe. A week or more later the animals were sacrificed by CO2 inhalation and perfused with Vessel Paint, a new visualization technique recently developed in the inventors' lab that enables screening agents, including chemical compounds and proteins, for their potential in inhibiting CNV (Wen, ARVO Abstract, March 2002). Vessel Painting comprises the use of a solution containing DiI, followed by 4% paraformaldehyde solution, and is discussed further below.
The anterior portion of the eye, including the cornea and lens, was removed, and the eyecup was imbedded in 5% agarose. […] Eye sections were examined by fluorescence microscopy for neovascularization in the Matrigel™ deposit. […] Protein leakage of the new vessels was detected by assessing color change in the Matrigel™ deposit after intravenous injection of Evan's Blue dye. […]
Adult Sprague-Dawley rats (n=22) were injected with Matrigel™ to the subretinal space. […] Tissue sections were examined by fluorescence microscopy. […]
Eyes were collected 10 days after injection and blood vessels were stained with Vessel Paint. […] CNV was examined by fluorescence microscopy and CNV index of each eye was calculated.

Solubility in water = assay type: physicochemical

solubility in water (Solubility in water)	effect on the normal vasculature of the eye ([1]; all experiments)	Structure (SMILES)	CNV index (mean) ([1]; suspension in Matrigel 10 μg/μl, 1.2 μl subretinal, 10 days after injection)
not water soluble	–	C=CC[C@@H]1/C=C(\C)C[C@H](C)C[C@H](OC)[C@H]2O[C@@](O)(C(=O)C(=O)N3CCCC[C@H]3C(=O)O[C@H](/C(C)=C/[C@@H]3CC[C@@H](O)[C@H](OC)C3)[C@H](C)[C@@H](O)CC1=O)[C@H](C)C[C@@H]2OC [FK506]	Mean = 12.67 (n = 6)
not soluble in water	no discernable effect	CO[C@H]1C[C@@H]2CC[C@@H](C)[C@@](O)(O2)C(=O)C(=O)N2CCCC[C@H]2C(=O)O[C@H]([C@H](C)C[C@@H]2CC[C@@H](O)[C@H](OC)C2)CC(=O)[C@H](C)/C=C(\C)[C@@H](O)[C@@H](OC)C(=O)[C@H](C)C[C@H](C)/C=C/C=C/C=C/1C [rapamycin]	–
